Data as given in ChEMBL document CHEMBL6153110, “Peptide Double-Stapling and Arginine N-Glycosylation Triggered the Development of Therapeutic Antimicrobial Peptides Capable of Killing Drug-Resistant Bacteria in Mice” (J Med Chem, 2025).
≈ marks a conversion by molar mass, not a printed value. Positions of bridges follow the written chain, without caps; N, C: chain ends. Non-standard residues stand in square brackets, D forms with d. Residues, ends and D or L forms follow the SMILES beside them. R8 = C=CCCCCCC[C@@](C)(N)C(=O)O; S5 = C=CCCC[C@](C)(N)C(=O)O; Abu = CC[C@H](N)C(=O)O

Experiments:
Format in all cases: functional
[1] = system: Pseudomonas aeruginosa; assay: Antimicrobial activity against Pseudomonas aeruginosa ATCC 27853 assessed as growth inhibition measured after 8 hrs incubation by standard broth dilution assay
[2] = system: Streptococcus pneumoniae; assay: Antimicrobial activity against Streptococcus pneumoniae ATCC 49619 assessed as growth inhibition measured after 8 hrs incubation by standard broth dilution assay
[3] = system: Klebsiella pneumoniae; assay: Antimicrobial activity against Klebsiella pneumoniae ATCC 13883 assessed as growth inhibition measured after 8 hrs incubation by standard broth dilution assay
[4] = system: Staphylococcus aureus; assay: Antimicrobial activity against methicillin-resistant Staphylococcus aureus ATCC 43300 assessed as growth inhibition measured after 8 hrs incubation by standard broth dilution assay

| SMILES | MIC [1] [µg/mL] | MIC [2] [µg/mL] | MIC [3] [µg/mL] | MIC [4] [µg/mL] |
| --- | --- | --- | --- | --- |
| CC(=O)N[C@@H](CC(C)C)C(=O)N[C@@H](CCCCN)C(=O)N[C@@H](CCCNC(=N)N)C(=O)N[C@H](C(=O)N[C@@H](Cc1c[nH]c2ccccc12)C(=O)N[C@@H](CCCCN)C(=O)N[C@@H](CCCNC(=N)N)C(=O)N[C@H](C(=O)N[C@@H](Cc1ccccc1)C(=O)N[C@@H](CCCCN)C(=O)N[C@@H](CC(C)C)C(=O)N[C@@H](CC(C)C)C(=O)N[C@@H](CCCCN)C(=O)N[C@@H](CCCNC(=N)N)C(=O)N[C@@H](Cc1ccc(O)cc1)C(=O)N[C@]1(C)CCCCCC/C=C\CCC[C@@](C)(C(=O)N[C@@H](CCCNC(=N)N)C(N)=O)NC(=O)[C@@H]2CCCN2C(=O)[C@H](CCCCN)NC(=O)[C@H](CCCCN)NC(=O)[C@H](CC(C)C)NC(=O)[C@H](CCC(N)=O)NC(=O)[C@H](CCCNC(=N)N)NC1=O)C(C)C)C(C)C (Ac-LKRVWKRVFKLLKRY[R8]RQLKKP[S5]R-NH2; staple (Z) 16-23) | 2.6 (≈ 0.794 µM) | 19 (≈ 5.8 µM) | 2.5 (≈ 0.764 µM) | 9.7 (≈ 2.96 µM) |
| CC(=O)N[C@@H](CC(C)C)C(=O)N[C@@H](CCCCN)C(=O)N[C@@H](CCCNC(=N)N)C(=O)N[C@H](C(=O)N[C@@H](Cc1c[nH]c2ccccc12)C(=O)N[C@@H](CCCCN)C(=O)N[C@@H](CCCNC(=N)N)C(=O)N[C@H](C(=O)N[C@@H](Cc1ccccc1)C(=O)N[C@@H](CCCCN)C(=O)N[C@@H](CC(C)C)C(=O)N[C@@H](CC(C)C)C(=O)N[C@@H](CCCCN)C(=O)N[C@@H](CCCNC(=N)N)C(=O)N[C@]1(C)CCCCCC/C=C\CCC[C@@](C)(C(=O)N[C@H](C(=O)N[C@@H](CCCNC(=N)N)C(N)=O)C(C)C)NC(=O)[C@H](CCCCN)NC(=O)[C@H](CCCCN)NC(=O)[C@H](CC(C)C)NC(=O)[C@H](CCC(N)=O)NC(=O)[C@H](CCCNC(=N)N)NC(=O)[C@H](Cc2c[nH]c3ccccc23)NC1=O)C(C)C)C(C)C (Ac-LKRVWKRVFKLLKR[R8]WRQLKK[S5]VR-NH2; staple (Z) 15-22) | 9.9 (≈ 3 µM) | 37.7 (≈ 11.4 µM) | 38 (≈ 11.5 µM) | 4.9 (≈ 1.49 µM) |
| CC(=O)N[C@@H](CC(C)C)C(=O)N[C@@H](CCCCN)C(=O)N[C@@H](CCCNC(=N)N)C(=O)N[C@@]1(C)CCC/C=C\CCC[C@@](C)(C(=O)N[C@@H](Cc2ccccc2)C(=O)N[C@@H](CCCCN)C(=O)N[C@@H](CC(C)C)C(=O)N[C@@H](CC(C)C)C(=O)N[C@@H](CCCCN)C(=O)N[C@@H](CCCNC(=N)N)C(=O)N[C@@H](Cc2ccc(O)cc2)C(=O)N[C@@H](Cc2c[nH]c3ccccc23)C(=O)N[C@@H](CCCNC(=N)N)C(=O)N[C@@H](CCC(N)=O)C(=O)N[C@@H](CC(C)C)C(=O)N[C@@H](CCCCN)C(=O)N[C@@H](CCCCN)C(=O)N2CCC[C@H]2C(=O)N[C@H](C(=O)N[C@@H](CCCNC(=N)N)C(N)=O)C(C)C)NC(=O)[C@H](CCCNC(=N)N)NC(=O)[C@H](CCCCN)NC(=O)[C@H](Cc2c[nH]c3ccccc23)NC1=O (Ac-LKR[S5]WKR[S5]FKLLKRYWRQLKKPVR-NH2; staple (Z) 4-8) | 5 (≈ 1.51 µM) | 37.7 (≈ 11.4 µM) | 38 (≈ 11.4 µM) | 2.5 (≈ 0.753 µM) |
| CC(=O)N[C@@H](CC(C)C)C(=O)N[C@@H](CCCCN)C(=O)N[C@@H](CCCNC(=N)N)C(=O)N[C@H](C(=O)N[C@@H](Cc1c[nH]c2ccccc12)C(=O)N[C@@H](CCCCN)C(=O)N[C@@H](CCCNC(=N)N)C(=O)N[C@H](C(=O)N[C@]1(C)CCCCCC/C=C\CCC[C@@](C)(C(=O)N[C@@H](CCCNC(=N)N)C(=O)N[C@@H](CCC(N)=O)C(=O)N[C@@H](CC(C)C)C(=O)N[C@@H](CCCCN)C(=O)N[C@@H](CCCCN)C(=O)N2CCC[C@H]2C(=O)N[C@H](C(=O)N[C@@H](CCCNC(=N)N)C(N)=O)C(C)C)NC(=O)[C@H](Cc2ccc(O)cc2)NC(=O)[C@H](CCCNC(=N)N)NC(=O)[C@H](CCCCN)NC(=O)[C@H](CC(C)C)NC(=O)[C@H](CC(C)C)NC(=O)[C@H](CCCCN)NC1=O)C(C)C)C(C)C (Ac-LKRVWKRV[R8]KLLKRY[S5]RQLKKPVR-NH2; staple (Z) 9-16) | 38 (≈ 11.8 µM) | 9.6 (≈ 2.98 µM) | 38 (≈ 11.8 µM) | 9.7 (≈ 3.01 µM) |
| CC(=O)N[C@@H](CC(C)C)C(=O)N[C@@H](CCCCN)C(=O)N[C@@H](CCCNC(=N)N)C(=O)N[C@H](C(=O)N[C@@H](Cc1c[nH]c2ccccc12)C(=O)N[C@@H](CCCCN)C(=O)N[C@@H](CCCNC(=N)N)C(=O)N[C@H](C(=O)N[C@@H](Cc1ccccc1)C(=O)N[C@@H](CCCCN)C(=O)N[C@@H](CC(C)C)C(=O)N[C@@H](CC(C)C)C(=O)N[C@@H](CCCCN)C(=O)N[C@@H](CCCNC(=N)N)C(=O)N[C@@H](Cc1ccc(O)cc1)C(=O)N[C@@H](Cc1c[nH]c2ccccc12)C(=O)N[C@@H](CCCNC(=N)N)C(=O)N[C@@]1(C)CCC/C=C\CCC[C@@](C)(C(=O)N[C@H](C(=O)N[C@@H](CCCNC(=N)N)C(N)=O)C(C)C)NC(=O)[C@H](CCCCN)NC(=O)[C@H](CCCCN)NC(=O)[C@H](CC(C)C)NC1=O)C(C)C)C(C)C (Ac-LKRVWKRVFKLLKRYWR[S5]LKK[S5]VR-NH2; staple (Z) 18-22) | 9.8 (≈ 2.98 µM) | 37.7 (≈ 11.5 µM) | 38 (≈ 11.5 µM) | 4.9 (≈ 1.49 µM) |
| CC(=O)N[C@@H](CC(C)C)C(=O)N[C@@H](CCCCN)C(=O)N[C@@H](CCCNC(=N)N)C(=O)N[C@H](C(=O)N[C@@H](Cc1c[nH]c2ccccc12)C(=O)N[C@@H](CCCCN)C(=O)N[C@@H](CCCNC(=N)N)C(=O)N[C@H](C(=O)N[C@@H](Cc1ccccc1)C(=O)N[C@@H](CCCCN)C(=O)N[C@@H](CC(C)C)C(=O)N[C@@H](CC(C)C)C(=O)N[C@@H](CCCCN)C(=O)N[C@@H](CCCNC(=N)N)C(=O)N[C@@H](Cc1ccc(O)cc1)C(=O)N[C@@]1(C)CCC/C=C\CCC[C@@](C)(C(=O)N[C@@H](CCCCN)C(=O)N2CCC[C@H]2C(=O)N[C@H](C(=O)N[C@@H](CCCNC(=N)N)C(N)=O)C(C)C)NC(=O)[C@H](CC(C)C)NC(=O)[C@H](CCC(N)=O)NC(=O)[C@H](CCCNC(=N)N)NC1=O)C(C)C)C(C)C (Ac-LKRVWKRVFKLLKRY[S5]RQL[S5]KPVR-NH2; staple (Z) 16-20) | 5 (≈ 1.56 µM) | 19 (≈ 5.93 µM) | 38 (≈ 11.9 µM) | 2.5 (≈ 0.78 µM) |
| CC(=O)N[C@@H](CC(C)C)C(=O)N[C@@H](CCCCN)C(=O)N[C@@H](CCCNC(=N)N)C(=O)N[C@H](C(=O)N[C@@H](Cc1c[nH]c2ccccc12)C(=O)N[C@@H](CCCCN)C(=O)N[C@@H](CCCNC(=N)N)C(=O)N[C@H](C(=O)N[C@@H](Cc1ccccc1)C(=O)N[C@@H](CCCCN)C(=O)N[C@@H](CC(C)C)C(=O)N[C@@]1(C)CCC/C=C\CCC[C@@](C)(C(=O)N[C@@H](CCCNC(=N)N)C(=O)N[C@@H](CCC(N)=O)C(=O)N[C@@H](CC(C)C)C(=O)N[C@@H](CCCCN)C(=O)N[C@@H](CCCCN)C(=O)N2CCC[C@H]2C(=O)N[C@H](C(=O)N[C@@H](CCCNC(=N)N)C(N)=O)C(C)C)NC(=O)[C@H](Cc2ccc(O)cc2)NC(=O)[C@H](CCCNC(=N)N)NC(=O)[C@H](CCCCN)NC1=O)C(C)C)C(C)C (Ac-LKRVWKRVFKL[S5]KRY[S5]RQLKKPVR-NH2; staple (Z) 12-16) | 5 (≈ 1.55 µM) | 4.7 (≈ 1.46 µM) | 38 (≈ 11.8 µM) | 9.7 (≈ 3.01 µM) |
| CC(=O)N[C@@H](CC(C)C)C(=O)N[C@@H](CCCCN)C(=O)N[C@@H](CCCNC(=N)N)C(=O)N[C@H](C(=O)N[C@@H](Cc1c[nH]c2ccccc12)C(=O)N[C@@H](CCCCN)C(=O)N[C@@H](CCCNC(=N)N)C(=O)N[C@H](C(=O)N[C@@H](Cc1ccccc1)C(=O)N[C@@H](CCCCN)C(=O)N[C@]1(C)CCCCCC/C=C\CCC[C@@](C)(C(=O)N[C@@H](CC(C)C)C(=O)N[C@@H](CCCCN)C(=O)N[C@@H](CCCCN)C(=O)N2CCC[C@H]2C(=O)N[C@H](C(=O)N[C@@H](CCCNC(=N)N)C(N)=O)C(C)C)NC(=O)[C@H](CCCNC(=N)N)NC(=O)[C@H](Cc2c[nH]c3ccccc23)NC(=O)[C@H](Cc2ccc(O)cc2)NC(=O)[C@H](CCCNC(=N)N)NC(=O)[C@H](CCCCN)NC(=O)[C@H](CC(C)C)NC1=O)C(C)C)C(C)C (Ac-LKRVWKRVFK[R8]LKRYWR[S5]LKKPVR-NH2; staple (Z) 11-18) | 5 (≈ 1.51 µM) | 37.7 (≈ 11.4 µM) | 4.9 (≈ 1.48 µM) | 9.7 (≈ 2.92 µM) |
| CC[C@@H]1NC(=O)[C@H](Cc2ccccc2)NC(=O)[C@H](C(C)C)NC(=O)[C@@](C)(NC(=O)[C@H](CCCCN)NC(=O)[C@H](Cc2c[nH]c3ccccc23)NC(=O)[C@@H](NC(=O)[C@H](CCCNC(=N)N)NC(=O)[C@H](CCCCN)NC(=O)[C@H](CC(C)C)NC(C)=O)C(C)C)CCC/C=C\CCC[C@@](C)(C(=O)N[C@@H](CC(C)C)C(=O)N[C@@H](CCCCN)C(=O)N[C@@H](CCCNC(=N)N)C(=O)N[C@@H](Cc2ccc(O)cc2)C(=O)N[C@@H](Cc2c[nH]c3ccccc23)C(=O)N[C@@H](CCCNC(=N)N)C(=O)N[C@@H](CCC(N)=O)C(=O)N[C@@H](CC(C)C)C(=O)N[C@@H](CCCCN)C(=O)N[C@@H](CCCCN)C(=O)N2CCC[C@H]2C(=O)N[C@H](C(=O)N[C@@H](CCCNC(=N)N)C(N)=O)C(C)C)NC1=O (Ac-LKRVWK[S5]VF[Abu][S5]LKRYWRQLKKPVR-NH2; staple (Z) 7-11) | 5 (≈ 1.56 µM) | 19 (≈ 5.93 µM) | 4.9 (≈ 1.53 µM) | 2.5 (≈ 0.78 µM) |
| CC(=O)N[C@@H](CC(C)C)C(=O)N[C@@H](CCCCN)C(=O)N[C@@H](CCCNC(=N)N)C(=O)N[C@H](C(=O)N[C@@H](Cc1c[nH]c2ccccc12)C(=O)N[C@@H](CCCCN)C(=O)N[C@@H](CCCNC(=N)N)C(=O)N[C@H](C(=O)N[C@@H](Cc1ccccc1)C(=O)N[C@@H](CCCCN)C(=O)N[C@@H](CC(C)C)C(=O)N[C@@H](CC(C)C)C(=O)N[C@@H](CCCCN)C(=O)N[C@@H](CCCNC(=N)N)C(=O)N[C@@H](Cc1ccc(O)cc1)C(=O)N[C@@H](Cc1c[nH]c2ccccc12)C(=O)N[C@@H](CCCNC(=N)N)C(=O)N[C@@H](CCC(N)=O)C(=O)N[C@@]1(C)CCC/C=C\CCC[C@@](C)(C(=O)N[C@@H](CCCNC(=N)N)C(N)=O)NC(=O)[C@@H]2CCCN2C(=O)[C@H](CCCCN)NC(=O)[C@H](CCCCN)NC1=O)C(C)C)C(C)C (Ac-LKRVWKRVFKLLKRYWRQ[S5]KKP[S5]R-NH2; staple (Z) 19-23) | 5 (≈ 1.51 µM) | 9.6 (≈ 2.9 µM) | 38 (≈ 11.5 µM) | 19.1 (≈ 5.78 µM) |
